Measured values reported in patent US7150974B1, “Parathyroid hormone receptor binding method” (The General Hospital Corporation, priority 1991, dated 2006).

Assays:
[1] = biological target: T1, opossum kidney PTH/PTHrp receptor clone, OK-O (Didelphis virginiana, UniProt P25107, I132F/S86P); experiment: Radioreceptor assay, COS cells expressing OK-O; assay type: binding; details: FIG. 11
T1 construct: expressed in transfected cells; host or cells: COS cells, transient, plasmid OK-O (pcDNA I)
Description: [Nle^8,Nle^18,Tyr^34]bPTH-(1-34)amide (NlePTH), and [Tyr^36]PTHrP(1-36)amide(PTHrP) were iodinated with Na^125I (carrier free, New England Nuclear, Boston, Mass.) as previously reported (Segre et al., J. Biol. Chem. 254: 6980, 1979), and purified by reverse-phase HPLC. In brief, the labeled peptide was dissolved in 0.1% trifluoracetic acid (TFA), applied to a C18 Sep-pak cartridge (Waters Associates, Inc., Milford, Mass.) and eluted with a solution of 60% acetonitrile in 0.1% TFA. After lyophilization, the radioligand then was applied to C18-μBondapak column (3.9 mm×30 cm. Waters Associates) and eluted over 30 min with a linear gradient of 30-50% acetonitrile-0.1% TFA at a flow rate of 2 ml/min. The radioligand eluted in two peaks; the first peak, which eluted at approximately 38% acetonitrile, was used in these studies because it gave higher total and specific bindings. The specific activity was 500±75 mCi/mg, which corresponds to an average iodine-peptide ratio of 1.
COS-7 cells were grown in 15 cm plates in DMEM, 10% heat-inactivated […], 10 mg/L gentamycin until 80-90% confluent. Twenty-four hours after transfection by the DEAE/Dextran method (Sambrook et al., supra), with 1-2 μg of plasmid DNA, the cells were trypsinized and replated in multiwell plastic dishes (16 or 35 mm diameter, Costar, Cambridge, Mass.) at a cell concentration of 5×10^4 cells/cm^2). Cell number increased only slightly after transfection. After continuing culture for another 48 h, radiorecepter assays were performed. […]
Incubations were terminated by aspirating the buffer, and repeatedly (×3) washing the culture dishes, containing the adherent cells with chilled 0.9% NaCl solution, over a 15 sec period. Cell-bound radioactivity was recovered by the sequential addition (×3) of 1 N NaOH (200 μl) to each well. […] A second and third extraction with 1 N NaOH (200 μl) were combined with the first, and the total radioactivity was counted in a γ-spectrometer (Packard Instruments, Downers Grove, Ill.). […]

[2] = biological target: T2, human kidney PTH/PTHrP receptor (Homo sapiens, UniProt Q03431, L389Q); experiment: Intracellular free calcium, COS-7 cells expressing human receptor; assay type: cell-based
T2 construct: The full-length human kidney PTH/PTHrP receptor cDNA, HKrk, was constructed using the BamHI/PvuII fragment of PCR clone #2 and HK-2; expressed in transfected cells; host or cells: COS-7 cells, transient (DEAE/Dextran), pcDNAI
T2 sequence (Q03431 27-593 L389Q): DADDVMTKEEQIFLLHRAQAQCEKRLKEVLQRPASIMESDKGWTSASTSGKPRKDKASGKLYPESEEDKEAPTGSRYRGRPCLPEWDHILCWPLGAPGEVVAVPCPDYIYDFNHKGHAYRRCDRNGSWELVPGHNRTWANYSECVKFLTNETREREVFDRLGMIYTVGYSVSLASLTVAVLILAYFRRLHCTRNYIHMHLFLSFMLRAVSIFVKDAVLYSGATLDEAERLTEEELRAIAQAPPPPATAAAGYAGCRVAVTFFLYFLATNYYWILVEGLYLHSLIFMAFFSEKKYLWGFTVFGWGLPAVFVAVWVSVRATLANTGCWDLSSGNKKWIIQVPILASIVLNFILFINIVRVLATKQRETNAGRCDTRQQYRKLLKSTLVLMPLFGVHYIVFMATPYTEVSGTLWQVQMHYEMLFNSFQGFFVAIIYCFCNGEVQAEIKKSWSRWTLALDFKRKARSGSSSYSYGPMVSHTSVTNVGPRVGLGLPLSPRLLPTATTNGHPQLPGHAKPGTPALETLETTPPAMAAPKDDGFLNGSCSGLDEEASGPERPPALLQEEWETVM
Description: Details of the methodology are:
Coverslips plated with COS cells were incubated in Fura-2 AM loading buffer containing, in mM: HEPES (N-[2-Hydroxyethyl]piperazine-N′-[2-ethanesulfonic acid]), 20; CaCl2, 1; KCl 5; NaCl, 145; MgSO4, 0.5; NaHCO3, 25; K2HPO4, 1.4; glucose, 10; and Fura-2 AM 91-(2-5′-carboxyoxazol-2′-yl)-6-aminobenzofuran-5oxy-(2′-amino-5′-methylphenoxy)ethane-N,N,N′,N′-tetraaecetic acid acetomethoxy ester), 0.5; at 37° C. at pH7.4, aerated with 95% air and 5% CO2 for 45 minutes. Cells loaded with Fura-2 AM were then washed with a modified Krebs-Heinseleit (KH) buffer containing, in mM: HEPES, 20; CaCl2, 1; KCl, 5; NaCl, 145; MgSO4, 0.5; Na2HPO4, 1; glucose, 5; pH7.4. To check that cleavage of the ester occurred, the excitation spectra after different times of Fura-2 AM incubation were measured.
To measure fluorescence of individual cells, the cover slips were placed in a microscope tissue chamber (Biophysica Technologies, Inc., MD). The chamber consisted of a shallow, sloped compartment made of Teflon with a silicone rubber seal. The cover slips served as the bottom of the chamber. A heater/cooler ring was encased in the silicone rubber which sealed the coverslip in place.

T1 sequence (P25107 27-585 S86P/I132F): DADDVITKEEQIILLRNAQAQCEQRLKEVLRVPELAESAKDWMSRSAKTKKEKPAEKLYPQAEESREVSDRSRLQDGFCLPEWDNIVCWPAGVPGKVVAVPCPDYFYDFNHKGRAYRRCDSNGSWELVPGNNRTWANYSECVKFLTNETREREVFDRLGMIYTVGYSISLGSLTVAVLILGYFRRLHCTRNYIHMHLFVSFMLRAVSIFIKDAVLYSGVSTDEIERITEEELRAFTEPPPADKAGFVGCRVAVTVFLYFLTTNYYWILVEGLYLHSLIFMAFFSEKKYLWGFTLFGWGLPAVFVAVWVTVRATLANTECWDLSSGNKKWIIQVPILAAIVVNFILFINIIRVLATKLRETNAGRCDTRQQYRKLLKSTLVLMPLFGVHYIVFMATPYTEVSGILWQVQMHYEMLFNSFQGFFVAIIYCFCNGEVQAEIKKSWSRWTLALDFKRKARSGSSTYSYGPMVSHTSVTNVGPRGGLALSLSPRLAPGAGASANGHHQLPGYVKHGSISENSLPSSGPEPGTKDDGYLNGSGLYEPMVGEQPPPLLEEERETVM

## [Nle^8,18, Tyr^34]bPTH(1-34)amide
[1]
  inhibition of 125I-PTHrP binding by competitor: inhibited
[2]
  increase in intracellular free calcium, PTH(1-34) compared with PTHrP(1-36): to the same extent
